Data on 17 compounds can be found in ChEMBL document CHEMBL1201862, “PubChem BioAssay data set” (2004).

Among the test systems are HCC 2998; SK-MEL-5; PC-3; OVCAR-3; BT-549; M14; SNB-75; MOLT-4; RPMI-8226; MDA-MB-231; SR; CAKI-1; MDA-N; T47D.
Holding throughout (experiment): inhibition of tumour cell growth, NCI panel, 48 h

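All cell lines were grown in 96-well plates and treated with compound for 48 hours. Here, GI50 denotes the concentration required for 50% inhibition of growth.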 The source made the active and inactive calls. Cut-off read from the data, not from the text of the source: active = GI50 up to about 1.1 µM and inactive = higher. Where only a bound is given, the exact number is not on record here.

As to `O=S(=O)(O)c1cc(/N=N/c2c(O)ccc3ccccc23)cc2c(S(=O)(=O)O)cccc12`, the GI50 with HCC 2998, in the assay with SK-MEL-5, in the assay on PC-3, in the assay with OVCAR-3, in the assay on BT-549 and with M14 was > 100 µM (inactive) in each case. Also, the GI50 in the assay on SNB-75, in the assay on MOLT-4, in the assay with RPMI-8226, in the assay with MDA-MB-231, in the assay with SR and in the assay with CAKI-1 was > 100 µM (inactive) in each case.
For `CC(=NNC(=S)Nc1ccccc1C)c1cccc(C(C)=NNC(=S)Nc2ccccc2C)n1`, the GI50 is > 100 µM (inactive) in the assay on HCC 2998; 1.3 µM (inactive) with SK-MEL-5; 32.1 µM (inactive) with PC-3; 15.8 µM (inactive) in the assay with M14; > 100 µM (inactive) in the assay with MDA-N; 2.36 µM (inactive) with SNB-75. For the same compound, the GI50 in the assay with MOLT-4 is 14.1 µM (inactive); with RPMI-8226 it was > 100 µM (inactive); in the assay on SR, 0.262 µM (active); with CAKI-1, 42.9 µM (inactive); in the assay with T47D, > 100 µM (inactive).
`COc1ccc2nc3c([N+](=O)[O-])ccc(NCCN(C)C)c3c(N)c2c1`: the GI50 with SK-MEL-5 is 1.81 µM (inactive); in the assay with PC-3, 1.46 µM (inactive); in the assay on OVCAR-3 it was 0.562 µM (active); with M14 it was 1.49 µM (inactive); in the assay on MDA-N it was 1.73 µM (inactive); with SNB-75, 1.08 µM (active). Also, the GI50 was 0.479 µM (active) with MOLT-4; 0.0703 µM (active) with RPMI-8226; 0.234 µM (active) in the assay with MDA-MB-231; 0.679 µM (active) with SR; 1.8 µM (inactive) in the assay on CAKI-1; 1.17 µM (inactive) with T47D.
For the compound `CC(=O)/C(=C/NC(=S)Nc1ccc(Cl)c(Cl)c1)C(=O)Nc1ccccc1C`, the GI50 in the assay with HCC 2998 was 32.3 µM (inactive); in the assay with SK-MEL-5, 19.2 µM (inactive); with OVCAR-3, 24.3 µM (inactive); in the assay with BT-549 it was 25.5 µM (inactive); in the assay on M14 it was 37 µM (inactive); with MDA-N it was 25.3 µM (inactive). For the same compound, the GI50 in the assay on SNB-75 is 18.1 µM (inactive); in the assay on MOLT-4 it was 16 µM (inactive); in the assay with MDA-MB-231 it was 27.8 µM (inactive); in the assay with CAKI-1, 22.3 µM (inactive); in the assay with T47D it was 4.65 µM (inactive).
With `Cc1cc2nc3c(C#N)c4c(c(Nc5ccc(Cl)cc5)n3c2cc1C)CCC4`, the GI50 in the assay on SK-MEL-5 was 18.2 µM (inactive); in the assay on OVCAR-3, 17.9 µM (inactive); with BT-549 it was 23.8 µM (inactive); in the assay on SNB-75, 30.5 µM (inactive); with MOLT-4, 6.03 µM (inactive); in the assay on RPMI-8226, 3.66 µM (inactive). Further, the GI50 is 20.8 µM (inactive) with MDA-MB-231, 20.5 µM (inactive) in the assay on CAKI-1 and 30.5 µM (inactive) in the assay with T47D.
Regarding `O=S(=O)(N/N=C1\CC2CCC1C2)c1ccccc1` (centres undefined), the GI50 with SK-MEL-5, in the assay with PC-3, with OVCAR-3, in the assay with BT-549, in the assay with M14 and with MDA-N was > 100 µM (inactive) in each case. For the same compound, the GI50 with SNB-75, in the assay on MOLT-4, with RPMI-8226, with SR and in the assay on CAKI-1 was > 100 µM (inactive) throughout.
`COc1ccc(C2=C(OC(C)=O)c3cccn3-c3ccccc3S2)cc1`: the GI50 with HCC 2998 is 2.95 µM (inactive); in the assay on SK-MEL-5, 3.37 µM (inactive); in the assay with PC-3 it was 2.3 µM (inactive); with M14 it was 5.68 µM (inactive); with MDA-N, 0.34 µM (active); in the assay on SNB-75 it was 2.41 µM (inactive). The GI50 in the assay with MOLT-4 was 4.06 µM (inactive); in the assay on RPMI-8226, 2.4 µM (inactive); with MDA-MB-231, 0.728 µM (active); with SR it was 3.36 µM (inactive); in the assay on CAKI-1 it was 4.55 µM (inactive); in the assay with T47D, 5.9 µM (inactive).
For the compound `OC1C2CN3CCN(C2)CC1(c1ccccc1)C3` (centres undefined), the GI50 in the assay on SK-MEL-5, in the assay with PC-3, in the assay on OVCAR-3, with BT-549, in the assay on MDA-N and with SNB-75 was > 100 µM (inactive) in each case. Moreover, the GI50 in the assay with MOLT-4, with RPMI-8226, in the assay on MDA-MB-231, in the assay on SR and in the assay with CAKI-1 was > 100 µM (inactive) throughout.
Regarding `CCOC(=O)c1c(-c2ccc(OC)cc2)c(C#N)c(=S)n(C2OC(COC(C)=O)C(OC(C)=O)C(OC(C)=O)C2OC(C)=O)c1C` (centres undefined), the GI50 is > 100 µM (inactive) with HCC 2998; > 100 µM (inactive) in the assay on SK-MEL-5; 30.8 µM (inactive) in the assay on PC-3; 31.5 µM (inactive) with OVCAR-3; > 100 µM (inactive) in the assay on M14; > 100 µM (inactive) in the assay on MDA-N. The GI50 with SNB-75 was 12.7 µM (inactive); in the assay on MOLT-4, 61.1 µM (inactive); in the assay with MDA-MB-231 it was > 100 µM (inactive); in the assay on SR, > 100 µM (inactive); in the assay with CAKI-1 it was > 100 µM (inactive); in the assay on T47D, 47.6 µM (inactive).
Turning to `COc1ccc(/C=C/C(=N/NC(=O)N/N=C(/C=C/c2ccc(OC)cc2)C(C)(C)CN2CCCCC2)C(C)(C)CN2CCCCC2)cc1`, the GI50 in the assay with HCC 2998 was 1.74 µM (inactive); in the assay on SK-MEL-5, 1.63 µM (inactive); with PC-3, 2.28 µM (inactive); in the assay on OVCAR-3 it was 1.87 µM (inactive); in the assay with BT-549, 1.98 µM (inactive); with M14, 1.71 µM (inactive). Also, the GI50 was 1.64 µM (inactive) with MDA-N; 1.37 µM (inactive) in the assay with SNB-75; 1.71 µM (inactive) in the assay with MOLT-4; 1.69 µM (inactive) in the assay with RPMI-8226; 0.234 µM (active) with SR; 1.83 µM (inactive) with CAKI-1. For the same compound, the GI50 in the assay with T47D is 1.99 µM (inactive).
For the compound `N#Cc1nc(COCCOCc2ccc(F)cc2)oc1N`, the GI50 in the assay with HCC 2998, in the assay on SK-MEL-5, in the assay with PC-3, with OVCAR-3, in the assay on BT-549 and with M14 was > 100 µM (inactive) each time. Moreover, the GI50 in the assay on SNB-75, with MOLT-4, in the assay on RPMI-8226, in the assay with MDA-MB-231, in the assay on SR and with CAKI-1 was > 100 µM (inactive) in each case. The GI50 in the assay with T47D was > 100 µM (inactive).
Regarding `CSS(C)(=O)=O`, the GI50 with HCC 2998 is 27.8 µM (inactive); with SK-MEL-5, 61.5 µM (inactive); in the assay on PC-3 it was 18 µM (inactive); in the assay with OVCAR-3 it was 16.7 µM (inactive); with M14, 26.6 µM (inactive); with SNB-75, 32.3 µM (inactive). Also, the GI50 in the assay on MOLT-4 was 2.43 µM (inactive); with RPMI-8226, 1.95 µM (inactive); in the assay on MDA-MB-231, 30.8 µM (inactive); in the assay on SR it was 15.3 µM (inactive); in the assay on CAKI-1 it was 22.8 µM (inactive); in the assay with T47D, 15.1 µM (inactive).
As to `CCCCCCCCCCCCCCCCCc1nc(Cl)nc(Cl)c1Cl`, the GI50 is > 100 µM (inactive) with HCC 2998; 17.3 µM (inactive) in the assay with SK-MEL-5; 38.1 µM (inactive) in the assay on PC-3; > 100 µM (inactive) in the assay with OVCAR-3; > 100 µM (inactive) in the assay on M14; > 100 µM (inactive) in the assay with MDA-N. Besides, the GI50 was > 100 µM (inactive) in the assay with SNB-75; 76.7 µM (inactive) with MOLT-4; 24.4 µM (inactive) in the assay with RPMI-8226; > 100 µM (inactive) with MDA-MB-231; 52.2 µM (inactive) in the assay on SR; > 100 µM (inactive) with CAKI-1. Also, in the assay on T47D, the GI50 was > 100 µM (inactive).
Consider `CCCNC(=O)OCc1c(COC(=O)NCCC)c(-c2ccc(Cl)c(Cl)c2)n2c1CCC2`, for which the GI50 in the assay on SK-MEL-5 was 5.98 µM (inactive); in the assay on PC-3, 8.59 µM (inactive); with OVCAR-3, 14 µM (inactive); in the assay with BT-549, 4.07 µM (inactive); in the assay on M14, 10.6 µM (inactive); in the assay with MOLT-4 it was 3.11 µM (inactive). For the same compound, the GI50 in the assay on RPMI-8226 was 5.02 µM (inactive); with MDA-MB-231, 4.84 µM (inactive); in the assay on CAKI-1, 1.72 µM (inactive); with T47D, 11.4 µM (inactive).
As for `COC(=O)/C=C/c1ccc2c(c1)CC1(Cc3ccccc3C1)C2`, the GI50 in the assay on HCC 2998 was > 100 µM (inactive); in the assay on SK-MEL-5, 43.2 µM (inactive); with PC-3, > 100 µM (inactive); in the assay on OVCAR-3 it was > 100 µM (inactive); in the assay on M14 it was > 100 µM (inactive); in the assay on MDA-N, 87.5 µM (inactive). In addition, the GI50 is 34.9 µM (inactive) in the assay on MOLT-4; 60.7 µM (inactive) in the assay with RPMI-8226; > 100 µM (inactive) in the assay with MDA-MB-231; 32.6 µM (inactive) in the assay with SR; > 100 µM (inactive) with T47D.
For `c1ccc(-c2ccc(-c3ccc(C4=NCCN4)cc3)o2)cc1`, the GI50 in the assay on HCC 2998 was 1.35 µM (inactive); in the assay on SK-MEL-5, 2.08 µM (inactive); with PC-3 it was 2.23 µM (inactive); in the assay with OVCAR-3, 5.5 µM (inactive); with BT-549 it was 6.28 µM (inactive); with M14 it was 1.68 µM (inactive). For the same compound, the GI50 in the assay on SNB-75 was 2.38 µM (inactive); in the assay on MOLT-4, 1.82 µM (inactive); with RPMI-8226, 0.94 µM (active); in the assay with MDA-MB-231, 2 µM (inactive); in the assay with SR, 0.773 µM (active); with CAKI-1, 2.34 µM (inactive). Moreover, the GI50 in the assay on T47D was 2.65 µM (inactive).
With `Cc1ccc2c(c1)C(=O)C1(C2)Cc2ccc(C)cc2C1=O`, the GI50 in the assay on HCC 2998, with SK-MEL-5, with PC-3, in the assay with OVCAR-3, in the assay on M14 and in the assay with MDA-N was > 100 µM (inactive) each time. Moreover, the GI50 in the assay with SNB-75, in the assay on MOLT-4, in the assay on RPMI-8226, in the assay with MDA-MB-231, in the assay on SR and in the assay with CAKI-1 was > 100 µM (inactive) each time. Moreover, in the assay with T47D, the GI50 is > 100 µM (inactive).
